Tested on: 282377-053-R-J1-PDC complex spheroids, viability
Test: Anticancer human tumor 282377-053-R-J1-PDC patient-derived colon adenocarcinoma cell line growth inhibition [GQUAD]
Conditions: for IC50: curve of first compound; for viability, T/C: stronger effect = lower value
Source text: DNA G-quadruplex Stabilizer Agents in Combinations in Complex Spheroids
A high-throughput screen of multi-cell type tumor spheroids was designed to identify active combinations of DNA G-quadruplex stabilizer agents and targeted small molecules. Complex spheroids include a stromal component modeled by human endothelial cells (HUVEC) and fibroblasts modeled by human mesenchymal stem cells (MSCs). The concentration ranges selected for each drug and investigational agent were based upon clinically achievable concentrations if the clinical Cmax of the agent was known.
Compounds. The drugs and investigational agents: pidnarulex (CX-5461; NSC782164), APTO-253 (NSC789042), BRACO-19 (NSC847499), peposertib (NSC802822), ceralasertib (NSC780249), elimusertib (NSC800525), camonsertib (NSC841442), AZD-1390 (NSC803789), olaparib (NSC753686), talazoparib (NSC767125), ART-558 (NSC835418), sotorasib (NSC818433), MRTX-1133 (NSC836407), SN-38 (NSC673596), topotecan (NSC609699), etoposide (NSC141540), doxorubicin (NSC123127), gemcitabine (NSC613327), 5-fluorouracil (NSC19893), paclitaxel (NSC125973), vemurafenib (NSC761431), panobinostat (NSC761190), R-306465 (JNJ-16241199; NSC773264), adavosertib (NSC754352), TP-3654 (NSC805149), carboplatin (NSC241240), KSQ-4279 (NSC840948), and staurosporine (NSC755774) were obtained from the National Cancer Institute (NCI) Developmental Therapeutics Program Chemical Repository (34). The FDA-approved anticancer drug set is available from the NCI Developmental Therapeutics Program. […] The stock solutions were prepared in dimethyl sulfoxide (DMSO, Sigma-Aldrich, St. Louis, MO, cat. D2650) at 800-fold the tested concentration and stored at -70 degrees C prior to their use. All drugs and investigational agents were tested over a range starting from a high concentration at or near the clinical Cmax and decreasing in half-log increments. If the clinical Cmax for an agent had not been determined, the highest concentration tested was 10 microM.
2.3 Cell Culture. All cells were maintained in an incubator at 37 degrees C and 5% CO2 with 95% humidity. The PDC lines were cultured according to standard operating procedures established by the NCI PDMR. All PDCs were thawed and cultured in Matrigel-coated flasks prepared with a working solution of 1X Ham's F-12 nutrient mix, without supplementation (Invitrogen, cat. 11765054), 100 U/mL penicillin-streptomycin (Invitrogen, cat. 15140122), and 2.5% Matrigel (Corning Inc., cat. 354248) for the first three passages. The 857933-349-R-J2-PDC line was cultured in 6C/Colon 1B media, which includes advanced DMEM/F-12 (Thermo Fisher Scientific, cat. 12634028), 10 mM HEPES (Thermo Fisher Scientific, cat. 15630080), 1X GlutaMAX supplement (Thermo Fisher Scientific, cat. 35050061), 0.1 mg/mL primocin (InvivoGen, cat. ant-pm-2), 10% defined fetal bovine serum, heat inactivated (HyClone Laboratories Inc., cat. SH30070.03HI), 50% L-WRN conditioned media (ATCC, cat. CRL-3276), 1.25 mM N-Acetyl-L-cysteine (Sigma-Aldrich, cat. A9165), 10 mM nicotinamide (Sigma-Aldrich, cat. N0636), 1X B-27 supplement (Thermo Fisher Scientific, cat. 17504044), 1X N-2 supplement (Thermo Fisher Scientific, cat. 17502048), 10 microM Y-27632 dihydrochloride (Tocris Bioscience, cat. 1254), and 50 ng/mL human EGF recombinant protein (Thermo Fisher Scientific, cat. PHG0311). The 485176-168-R4-J1-PDC line was cultured in Panc media, which includes all 6C/Colon 1B media components plus 100 ng/mL human FGF-10 (Thermo Fisher Scientific, cat. 100-26), 500 nM SB-431542 (Selleckchem, cat. S1067), and gastrin (Tocris, cat. 3006).
[…]

[1] = second compound 0.0316 µM, first compound 0.0316 µM
[2] = second compound 0.0316 µM, first compound 0.316 µM
[3] = second compound 0.1 µM, first compound 0.0316 µM
[4] = second compound 0.1 µM, first compound 0.316 µM
[5] = second compound 0.316 µM, first compound 0.0316 µM
[6] = second compound 0.316 µM, first compound 0.316 µM
[7] = second compound 1 µM, first compound 0.0316 µM
[8] = second compound 1 µM, first compound 0.316 µM
[9] = second compound 3.16 µM, first compound 0.0316 µM
[10] = second compound 3.16 µM, first compound 0.316 µM
[11] = second compound 10 µM, first compound 0.0316 µM
[12] = second compound 10 µM, first compound 0.316 µM
[13] = second compound 0.0316 µM, first compound 0.000999 µM
[14] = second compound 0.0316 µM, first compound 0.00316 µM
[15] = second compound 0.0316 µM, first compound 0.00999 µM
[16] = second compound 0.0316 µM, first compound 0.0999 µM
[17] = second compound 0.1 µM, first compound 0.000999 µM
[18] = second compound 0.1 µM, first compound 0.00316 µM
[19] = second compound 0.1 µM, first compound 0.00999 µM
[20] = second compound 0.1 µM, first compound 0.0999 µM
[21] = second compound 0.316 µM, first compound 0.000999 µM
[22] = second compound 0.316 µM, first compound 0.00316 µM
[23] = second compound 0.316 µM, first compound 0.00999 µM
[24] = second compound 0.316 µM, first compound 0.0999 µM
[25] = second compound 1 µM, first compound 0.000999 µM
[26] = second compound 1 µM, first compound 0.00316 µM
[27] = second compound 1 µM, first compound 0.00999 µM
[28] = second compound 1 µM, first compound 0.0999 µM
[29] = second compound 3.16 µM, first compound 0.000999 µM
[30] = second compound 3.16 µM, first compound 0.00316 µM
[31] = second compound 3.16 µM, first compound 0.00999 µM
[32] = second compound 3.16 µM, first compound 0.0999 µM
[33] = second compound 10 µM, first compound 0.000999 µM
[34] = second compound 10 µM, first compound 0.00316 µM
[35] = second compound 10 µM, first compound 0.00999 µM
[36] = second compound 10 µM, first compound 0.0999 µM
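Note: spheroids exposed to compounds for 7 days before readout.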
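Throughout, for viability, T/C: percent of vehicle DMSO control viability with 100% = untreated-like growth.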

SMILES: C=CC(=O)N1CCN(c2nc(=O)n(-c3c(C)ccnc3C(C)C)c3nc(-c4c(O)cccc4F)c(F)cc23)C(C)C1 (stereo unspecified) + CN(C)c1ccc(Nc2c3ccc(NC(=O)CCN4CCCC4)cc3nc3cc(NC(=O)CCN4CCCC4)ccc23)cc1
- IC50 (second compound 0.0316 µM): > 10000 nM
- IC50 (second compound 0.1 µM): > 10000 nM
- IC50 (second compound 0.316 µM): > 10000 nM
- IC50 (second compound 1 µM): > 10000 nM
- IC50 (second compound 3.16 µM): > 10000 nM
- IC50 (second compound 10 µM): > 10000 nM
- viability, T/C [1]: 105%
- viability, T/C (second compound 0.0316 µM, first compound 0.1 µM): 104%
- viability, T/C [2]: 99.3%
- viability, T/C (second compound 0.0316 µM, first compound 1 µM): 99%
- viability, T/C (second compound 0.0316 µM, first compound 3.16 µM): 87%
- viability, T/C (second compound 0.0316 µM, first compound 10 µM): 79%
- viability, T/C [3]: 107%
- viability, T/C (second compound 0.1 µM, first compound 0.1 µM): 94.5%
- viability, T/C [4]: 110%
- viability, T/C (second compound 0.1 µM, first compound 1 µM): 96%
- viability, T/C (second compound 0.1 µM, first compound 3.16 µM): 107%
- viability, T/C (second compound 0.1 µM, first compound 10 µM): 66.6%
- viability, T/C [5]: 115%
- viability, T/C (second compound 0.316 µM, first compound 0.1 µM): 97.6%
- viability, T/C [6]: 103%
- viability, T/C (second compound 0.316 µM, first compound 1 µM): 101%
- viability, T/C (second compound 0.316 µM, first compound 3.16 µM): 103%
- viability, T/C (second compound 0.316 µM, first compound 10 µM): 72.4%
- viability, T/C [7]: 112%
- viability, T/C (second compound 1 µM, first compound 0.1 µM): 99.5%
- viability, T/C [8]: 98.5%
- viability, T/C (second compound 1 µM, first compound 1 µM): 95.9%
- viability, T/C (second compound 1 µM, first compound 3.16 µM): 90.5%
- viability, T/C (second compound 1 µM, first compound 10 µM): 92.8%
- viability, T/C [9]: 105%
- viability, T/C (second compound 3.16 µM, first compound 0.1 µM): 90.2%
- viability, T/C [10]: 100%
- viability, T/C (second compound 3.16 µM, first compound 1 µM): 84.9%
- viability, T/C (second compound 3.16 µM, first compound 3.16 µM): 79.9%
- viability, T/C (second compound 3.16 µM, first compound 10 µM): 89.9%
- viability, T/C [11]: 111%
- viability, T/C (second compound 10 µM, first compound 0.1 µM): 93.3%
- viability, T/C [12]: 94.5%
- viability, T/C (second compound 10 µM, first compound 1 µM): 79.8%
- viability, T/C (second compound 10 µM, first compound 3.16 µM): 88.3%
- viability, T/C (second compound 10 µM, first compound 10 µM): 86.5%

SMILES: CCc1c2c(nc3ccc(O)cc13)-c1cc3c(c(=O)n1C2)COC(=O)[C@]3(O)CC + CN(C)c1ccc(Nc2c3ccc(NC(=O)CCN4CCCC4)cc3nc3cc(NC(=O)CCN4CCCC4)ccc23)cc1
- IC50 (second compound 0.0316 µM): 170 nM
- IC50 (second compound 0.1 µM): 162 nM
- IC50 (second compound 0.316 µM): 148 nM
- IC50 (second compound 1 µM): 117 nM
- IC50 (second compound 3.16 µM): 211 nM
- IC50 (second compound 10 µM): 218 nM
- viability, T/C [13]: 102%
- viability, T/C [14]: 104%
- viability, T/C [15]: 85.5%
- viability, T/C [1]: 69.5%
- viability, T/C [16]: 61.8%
- viability, T/C [2]: 40%
- viability, T/C [17]: 104%
- viability, T/C [18]: 90.9%
- viability, T/C [19]: 92.1%
- viability, T/C [3]: 60.7%
- viability, T/C [20]: 61.2%
- viability, T/C [4]: 40.9%
- viability, T/C [21]: 110%
- viability, T/C [22]: 107%
- viability, T/C [23]: 71.6%
- viability, T/C [5]: 70.9%
- viability, T/C [24]: 53.8%
- viability, T/C [6]: 43%
- viability, T/C [25]: 95.2%
- viability, T/C [26]: 97.6%
- viability, T/C [27]: 92.4%
- viability, T/C [7]: 76.8%
- viability, T/C [28]: 51.2%
- viability, T/C [8]: 42.5%
- viability, T/C [29]: 103%
- viability, T/C [30]: 105%
- viability, T/C [31]: 91.6%
- viability, T/C [9]: 68.7%
- viability, T/C [32]: 63.1%
- viability, T/C [10]: 43.7%
- viability, T/C [33]: 108%
- viability, T/C [34]: 102%
- viability, T/C [35]: 99.5%
- viability, T/C [11]: 86.2%
- viability, T/C [36]: 63.1%
- viability, T/C [12]: 43.6%

SMILES: Cn1ncnc1[C@H]1c2n[nH]c(=O)c3cc(F)cc(c23)N[C@@H]1c1ccc(F)cc1 + CN(C)c1ccc(Nc2c3ccc(NC(=O)CCN4CCCC4)cc3nc3cc(NC(=O)CCN4CCCC4)ccc23)cc1
- IC50 (second compound 0.0316 µM): > 316 nM
- IC50 (second compound 0.1 µM): > 316 nM
- IC50 (second compound 0.316 µM): > 316 nM
- IC50 (second compound 1 µM): > 316 nM
- IC50 (second compound 3.16 µM): > 316 nM
- IC50 (second compound 10 µM): > 316 nM
- viability, T/C [13]: 96.8%
- viability, T/C [14]: 92.6%
- viability, T/C [15]: 101%
- viability, T/C [1]: 104%
- viability, T/C [16]: 112%
- viability, T/C [2]: 110%
- viability, T/C [17]: 127%
- viability, T/C [18]: 82.7%
- viability, T/C [19]: 88.7%
- viability, T/C [3]: 105%
- viability, T/C [20]: 101%
- viability, T/C [4]: 98.8%
- viability, T/C [21]: 109%
- viability, T/C [22]: 77.7%
- viability, T/C [23]: 78.9%
- viability, T/C [5]: 89.3%
- viability, T/C [24]: 94.3%
- viability, T/C [6]: 83.3%
- viability, T/C [25]: 109%
- viability, T/C [26]: 108%
- viability, T/C [27]: 100%
- viability, T/C [7]: 94.9%
- viability, T/C [28]: 107%
- viability, T/C [8]: 89.1%
- viability, T/C [29]: 85.5%
- viability, T/C [30]: 81%
- viability, T/C [31]: 101%
- viability, T/C [9]: 90.8%
- viability, T/C [32]: 92.8%
- viability, T/C [10]: 102%
- viability, T/C [33]: 81.4%
- viability, T/C [34]: 84.8%
- viability, T/C [35]: 91.6%
- viability, T/C [11]: 106%
- viability, T/C [36]: 101%
- viability, T/C [12]: 101%
